Data reported in the NIST ThermoML archive (doi:10.1021/acs.jced.8b01204).
± gives the expanded uncertainty stated by the source.

Key:
[1] = 101 kPa, Liquid; for speed of sound: Single path-length method; for mass density: Vibrating tube method
[2] = xn = mol fraction of the nth substance listed; settings: 101 kPa, Liquid, x2 = 0; for speed of sound: Single path-length method; for mass density: Vibrating tube method

Structure (SMILES) | speed of sound ([1]; 293.15 K) [m/s] | mass density ([1]; 293.15 K) [kg/m3] | speed of sound ([1]; 298.15 K) [m/s] | mass density ([1]; 298.15 K) [kg/m3] | speed of sound ([1]; 303.15 K) [m/s] | mass density ([1]; 303.15 K) [kg/m3] | speed of sound ([1]; 308.15 K) [m/s] | mass density ([1]; 308.15 K) [kg/m3] | speed of sound ([1]; 313.15 K) [m/s] | mass density ([1]; 313.15 K) [kg/m3] | speed of sound ([2]; 293.15 K) [m/s] | mass density ([2]; 293.15 K) [kg/m3] | speed of sound ([2]; 298.15 K) [m/s] | mass density ([2]; 298.15 K) [kg/m3] | speed of sound ([2]; 303.15 K) [m/s] | mass density ([2]; 303.15 K) [kg/m3] | speed of sound ([2]; 308.15 K) [m/s] | mass density ([2]; 308.15 K) [kg/m3] | speed of sound ([2]; 313.15 K) [m/s] | mass density ([2]; 313.15 K) [kg/m3]
C[N+]1(CC2CO2)CCCC1=O.O=C([O-])c1ccccc1O (stereo not given) [1-methyl-1-(oxiran-2-ylmethyl)-2-oxopyrrolidinium salicylate] | 1634.2 ± 6.3 | 1209.8 ± 3.2 | 1614.5 ± 6.3 | 1205.5 ± 3.2 | 1595.7 ± 6.3 | 1201.3 ± 3.2 | 1577.6 ± 6.3 | 1197.2 ± 3.2 | 1559.5 ± 6.3 | 1193 ± 3.2 | – | – | – | – | – | – | – | – | – | –
CC(=O)O [acetic acid] | 1159.3 ± 6.1 | 1052.5 ± 3 | 1142.8 ± 6.1 | 1046.9 ± 3 | 1126.3 ± 6.1 | 1041.4 ± 3 | 1109.6 ± 6.1 | 1035.8 ± 3 | 1094.8 ± 6.1 | 1030 ± 3 | – | – | – | – | – | – | – | – | – | –
CC(=O)O [acetic acid] + C[N+]1(CC2CO2)CCCC1=O.O=C([O-])c1ccccc1O | – | – | – | – | – | – | – | – | – | – | 1159.3 ± 6.1 | 1052.5 ± 3 | 1142.8 ± 6.1 | 1046.9 ± 3 | 1126.3 ± 6.1 | 1041.4 ± 3 | 1109.6 ± 6.1 | 1035.8 ± 3 | 1094.8 ± 6.1 | 1030 ± 3
CCC(=O)O [propanoic acid] | 1166.3 ± 6.1 | 993.8 ± 3 | 1148.1 ± 6.1 | 988.4 ± 3 | 1129.7 ± 6.1 | 983 ± 3 | 1111.3 ± 6.1 | 977.6 ± 3 | 1092.8 ± 6.1 | 972.2 ± 3 | – | – | – | – | – | – | – | – | – | –
CCC(=O)O [propanoic acid] + C[N+]1(CC2CO2)CCCC1=O.O=C([O-])c1ccccc1O | – | – | – | – | – | – | – | – | – | – | 1166.3 ± 6.1 | 993.8 ± 3 | 1148.1 ± 6.1 | 988.4 ± 3 | 1129.7 ± 6.1 | 983 ± 3 | 1111.3 ± 6.1 | 977.6 ± 3 | 1092.8 ± 6.1 | 972.2 ± 3
